In patent publication US20120121591A1 (priority 2009, published 2012):

How the values were obtained:
Type in all cases: cell-based
[1] = system: IFN-g secretion from T cells in human whole blood; details: read-out: WB (IFNg) IC5- (nM, Avg)
[2] = system: IL-2 secretion from T cells in human whole blood; details: read-out: WB (IL-2) IC50 (nM, Avg)
hKv1.3 = hKv1.3 (Homo sapiens, UniProt P22001); test: cell-based; details: Kv1.3 (IWQ) IC50 (nM, Avg)
Chain of hKv1.3 (P22001 whole entry): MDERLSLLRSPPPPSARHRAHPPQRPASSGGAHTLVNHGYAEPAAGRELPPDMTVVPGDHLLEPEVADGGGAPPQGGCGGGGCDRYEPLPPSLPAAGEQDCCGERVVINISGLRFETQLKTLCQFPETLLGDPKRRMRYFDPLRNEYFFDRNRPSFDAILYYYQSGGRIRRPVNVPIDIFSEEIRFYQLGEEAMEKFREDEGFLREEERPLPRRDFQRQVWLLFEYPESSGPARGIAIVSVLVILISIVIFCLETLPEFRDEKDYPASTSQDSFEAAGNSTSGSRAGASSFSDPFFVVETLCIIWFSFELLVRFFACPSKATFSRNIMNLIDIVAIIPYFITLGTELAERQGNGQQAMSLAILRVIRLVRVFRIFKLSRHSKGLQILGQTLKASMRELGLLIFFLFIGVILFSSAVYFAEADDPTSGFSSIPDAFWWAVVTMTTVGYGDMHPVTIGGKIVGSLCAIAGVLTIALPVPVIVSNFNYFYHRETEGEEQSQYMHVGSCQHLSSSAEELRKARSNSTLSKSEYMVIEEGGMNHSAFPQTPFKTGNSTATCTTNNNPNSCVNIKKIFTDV

With `CC[C@H](C)[C@@H]1NC(=O)[C@@H](NC(=O)[C@H](CO)NC(=O)[C@@H](N)CCCNC(=N)N)CSSC[C@@H](C(=O)O)NC(=O)[C@H]([C@@H](C)O)NC(=O)CNC(=O)[C@@H]2CSSC[C@@H]3NC(=O)[C@H](CCC(N)=O)NC(=O)[C@H](Cc4ccccc4)NC(=O)[C@H](C)NC(=O)[C@H](CCC(=O)O)NC(=O)[C@H](CSSC[C@H](NC(=O)[C@H](Cc4ccccc4)NC(=O)[C@H](CO)NC(=O)[C@H](CC(C)C)NC(=O)[C@H](CCCNC(=N)N)NC(=O)[C@H](Cc4ccc(O)cc4)NC(=O)[C@H](CCCCN)NC(=O)[C@H](CCSC)NC(=O)[C@H](CO)NC(=O)[C@H](Cc4c[nH]cn4)NC(=O)[C@H](CCCCN)NC3=O)C(=O)N[C@@H](CCCNC(=N)N)C(=O)N[C@@H](CCCCN)C(=O)N[C@@H]([C@@H](C)O)C(=O)N2)NC(=O)[C@H](CCCNC(=N)N)NC(=O)[C@H](CO)NC(=O)[C@H](CCCCN)NC(=O)[C@@H]2CCCN2C(=O)[C@H]([C@@H](C)CC)NC(=O)[C@H]([C@@H](C)O)NC(=O)[C@H](CC(=O)O)NC1=O` [[Glu13]ShK] the IC50 [1] was 1.1 nM, the IC50 [2] was 0.785 nM and the IC50 (hKv1.3) was 0.157 nM.

For `CC[C@H](C)[C@@H]1NC(=O)[C@@H](NC(=O)[C@H](CO)NC(=O)[C@@H](N)CCCNC(=N)N)CSSC[C@@H](C(=O)O)NC(=O)[C@H]([C@@H](C)O)NC(=O)CNC(=O)[C@@H]2CSSC[C@@H]3NC(=O)[C@H](CCC(N)=O)NC(=O)[C@H](Cc4ccccc4)NC(=O)[C@H](C)NC(=O)[C@H]([C@@H](C)O)NC(=O)[C@H](CSSC[C@H](NC(=O)[C@H](Cc4ccccc4)NC(=O)[C@H](CO)NC(=O)[C@H](CC(C)C)NC(=O)[C@H](CCCNC(=N)N)NC(=O)[C@H](Cc4ccc(O)cc4)NC(=O)[C@H](CCCCN)NC(=O)[C@H](CCC(=O)O)NC(=O)[C@H](CO)NC(=O)[C@H](Cc4c[nH]cn4)NC(=O)[C@H](CCCCN)NC3=O)C(=O)N[C@@H](CCCNC(=N)N)C(=O)N[C@@H](CCCCN)C(=O)N[C@@H]([C@@H](C)O)C(=O)N2)NC(=O)[C@H](CCCNC(=N)N)NC(=O)[C@H](CO)NC(=O)[C@H](CCCCN)NC(=O)[C@@H]2CCCN2C(=O)[C@H]([C@@H](C)CC)NC(=O)[C@H]([C@@H](C)O)NC(=O)[C@H](CC(=O)O)NC1=O` [[Glu21]ShK], the IC50 [1] was 28.1 nM, the IC50 [2] was 18.5 nM and the IC50 (hKv1.3) was 3.33 nM.

In the case of `CC[C@H](C)[C@@H]1NC(=O)[C@@H](NC(=O)[C@H](CO)NC(=O)[C@@H](N)CCCNC(=N)N)CSSC[C@@H](C(=O)O)NC(=O)[C@H]([C@@H](C)O)NC(=O)CNC(=O)[C@@H]2CSSC[C@@H]3NC(=O)[C@H](CCC(N)=O)NC(=O)[C@H](Cc4ccccc4)NC(=O)[C@H](C)NC(=O)[C@H]([C@@H](C)O)NC(=O)[C@H](CSSC[C@H](NC(=O)[C@H](Cc4ccccc4)NC(=O)[C@H](CO)NC(=O)[C@H](CC(C)C)NC(=O)[C@H](CCCNC(=N)N)NC(=O)[C@H](Cc4ccc(O)cc4)NC(=O)[C@H](CCCCN)NC(=O)[C@H](CCSC)NC(=O)[C@H](CO)NC(=O)[C@H](Cc4c[nH]cn4)NC(=O)[C@H](CCCCN)NC3=O)C(=O)N[C@@H](CCCNC(=N)N)C(=O)N[C@@H](CCCCN)C(=O)N[C@@H]([C@@H](C)O)C(=O)N2)NC(=O)[C@H](CCCNC(=N)N)NC(=O)[C@H](CCC(=O)O)NC(=O)[C@H](CCCCN)NC(=O)[C@@H]2CCCN2C(=O)[C@H]([C@@H](C)CC)NC(=O)[C@H]([C@@H](C)O)NC(=O)[C@H](CC(=O)O)NC1=O` [[Glu10]ShK], the IC50 [1] is reported as 0.055 nM, the IC50 [2] is reported as 0.023 nM and the IC50 (hKv1.3) is reported as 0.134 nM.
